Type in all cases: cell-based, Saccharomyces cerevisiae
Assay [1] concerns RE700A i PCDR1-HXT7 (IT[CDR1]). In words: Growth inhibition of IT[CDR1] by 2-DG. Particulars: 20 h 28° C., maltose, regarding growth in the absence of 2-DG. As to the method: FIG. 7: Growth inhibition of RE700A and IT[CDR1] by 2-DG. RE700A and IT[CDR1] were incubated for 20 h at 28° C. with maltose (2% (w/v)) as the sole carbon source and increasing 2-DG concentrations as indicated. The optical density was measured at 600 nm every 15 minutes and the integral under the growth curve was calculated. Inhibition of growth is shown in percent regarding growth in the absence of 2-DG. Growth of IT[CDR1] was inhibited by 45% at a 2-DG concentration of 0.01% (w/v), by 91% at a 2-DG concentration of 0.03% (w/v), by 92% at a 2-DG concentration of 0.05% (w/v), by 92% at a 2-DG concentration of 0.1% (w/v), by 94% at a 2-DG concentration of 1% (w/v), by 95% at a 2-DG concentration of 2% (w/v) and by 95% at a 2-DG concentration of 3% (w/v).
(3) Integrated screening system for inhibitors of PCDR1: S. cerevisiae strain RE700A was genetically modified as described in Example 1 and 2 to yield strain IT[CDR1], chromosomally expressing HXT7 under the control of the promoter of CDR1 (PCDR1) (for the complete genotype see Table 1). The inhibition of growth of IT[CDR1] by 2-DG was tested. The growth of this strain was inhibited by more than 90% at a 2-DG concentration of 0.03% (w/v) (FIG. 7)

The subject of assay [2] is RE700A Δpdr1 tok1::PPDR5-HXT7. As to the kind of experiment: Growth inhibition of RE700A Δpdr1 tok1::PPDR5-HXT7 by 2-DG. Particulars: RE700A Δpdr1 tok1::PPDR5-HXT7, maltose, 20 h 28° C. As to the method:
(A) Growth inhibition of RE700A i PPDR5-HXT7 (IT[PDR]), RE700A Δpdr1 tok1::PPDR5-HXT7, RE700A Δpdr3 tok1::PPDR5-HXT7 and RE700A Δpdr1,pdr3 tok1::PPDR5-HXT7 at increasing 2-DG concentrations. RE700A i PPDR5-HXT7 (IT[PDR]), RE700A Δpdr1 tok1::PPDR5-HXT7, RE700A Δpdr3 tok1::PPDR5-HXT7 and RE700A Δpdr1,pdr3 tok1::PPDR5-HXT7 were incubated 20 h at 28° C. with Maltose (2% (w/v)) as the sole carbon source and 2-DG concentrations as indicated. The optical density was measured at 600 nm every 15 minutes and the integral under the growth curve was calculated. Inhibition of growth caused by 2-DG is shown in percent. The growth of the strain RE700A tok1::PPDR5-HXT7 (IT[PDR]) was inhibited by 50% at 0.02% (w/v) 2-DG. Growth of the strains RE700A Δpdr1 tok1::PPDR5-HXT7 and RE700A Δpdr3 tok1::PPDR5-HXT7 was inhibited by 50% at 0.026% (w/v) 2-DG.
All strains expressing HXT7 were tested for sensitivity to 2-DG. The strains expressing GFP under the control of PPDR5 were additionally analysed for GFP fluorescence in comparison to RE700Ae PPDR5-GFP (strain CQ[PDR]).

For assay [3], the system named is RE700A i PPMA1-HXT7 (ICFP). As to the kind of experiment: Growth inhibition of ICFP by 2-DG. The following applies: 20 h 28° C., maltose, in percent of growth of RE700A. As to the method:
(B) RE700A, ICFP and IT[PDR] were incubated 20 h at 28° C. with maltose (2% (w/v)) as the sole carbon source and the indicated 2-DG concentrations. The optical density was measured at 600 nm every 15 minutes and the integral under the growth curve is calculated. Inhibition of growth of ICFP and IT[PDR] is shown in percent of growth of RE700A. Growth of ICFP was inhibited by 15% at 0.01% (w/v) 2-DG, by 74% at 0.03% (w/v) 2-DG, by 80% at 0.05% (w/v) 2-DG and by 83% at 0.1% (w/v) 2-DG. Growth of IT[PDR] was inhibited by 21% at 0.01% (w/v) 2-DG, by 79% at 0.03% (w/v) 2-DG, by 88% at 0.05% (w/v) 2-DG and by 96% in 0.1% (w/v) 2-DG.
Strain growth: The growth of the strains in liquid medium was determined by measuring the optical density at 600 nm. To obtain growth curves, measurements were performed every 15 min. Alternatively, start and endpoint (after 12-16 h) measurements were carried out.

In assay [4] the test system is RE700A Δpdr1 tok1::PPDR5long-HXT7. As to the kind of experiment: Growth of RE700A Δpdr1 tok1::PPDR5long-HXT7 in the presence of 2-DG. The following applies: RE700A Δpdr1 tok1::PPDR5long-HXT7, 20 h 28° C. The method, then: (B) Relative growth of RE700A tok1::PPDR5long-HXT7, RE700A Δpdr1 tok1::PPDR5long-HXT7, RE700A Δpdr3 tok1::PPDR5long-HXT7 and RE700A Δpdr1,3 tok1::PPDR5long-HXT7 in the presence of 2-DG. Cells were incubated for 20 h at 28° C. with 2-DG at different concentrations. […] The standard error of the mean (n=5) is indicated.

For orientation: Inhibition of growth means how much of the control response was suppressed.

With `O=CC[C@@H](O)[C@H](O)[C@H](O)CO` [2-DG, 2-deoxy-glucose], the Inhibition of growth was determined as 45% in assay [1] (0.01% (w/v) 2-DG); 92% in assay [1] (0.05% (w/v) 2-DG); 92% in assay [1] (0.1% (w/v) 2-DG); 94% in assay [1] (1% (w/v) 2-DG); 95% in assay [1] (2% (w/v) 2-DG); 95% in assay [1] (3% (w/v) 2-DG). Moreover, the Inhibition of growth was 15% in assay [3] (0.01% (w/v) 2-DG), 74% in assay [3] (0.03% (w/v) 2-DG), 80% in assay [3] (0.05% (w/v) 2-DG) and 83% in assay [3] (0.1% (w/v) 2-DG). Besides, the “2-DG concentration for 50% growth inhibition” value is 0.026 % (w/v) in assay [2] and 0.068 % (w/v) in assay [4].

Source of the values: patent US9121026B2 (priority 2004, dated 2015).
